pEC50: −log10 of the molar value.
Biological target: T1, human RXFP1 (Homo sapiens, UniProt Q9HBX9)
T1 sequence (Q9HBX9 1-757): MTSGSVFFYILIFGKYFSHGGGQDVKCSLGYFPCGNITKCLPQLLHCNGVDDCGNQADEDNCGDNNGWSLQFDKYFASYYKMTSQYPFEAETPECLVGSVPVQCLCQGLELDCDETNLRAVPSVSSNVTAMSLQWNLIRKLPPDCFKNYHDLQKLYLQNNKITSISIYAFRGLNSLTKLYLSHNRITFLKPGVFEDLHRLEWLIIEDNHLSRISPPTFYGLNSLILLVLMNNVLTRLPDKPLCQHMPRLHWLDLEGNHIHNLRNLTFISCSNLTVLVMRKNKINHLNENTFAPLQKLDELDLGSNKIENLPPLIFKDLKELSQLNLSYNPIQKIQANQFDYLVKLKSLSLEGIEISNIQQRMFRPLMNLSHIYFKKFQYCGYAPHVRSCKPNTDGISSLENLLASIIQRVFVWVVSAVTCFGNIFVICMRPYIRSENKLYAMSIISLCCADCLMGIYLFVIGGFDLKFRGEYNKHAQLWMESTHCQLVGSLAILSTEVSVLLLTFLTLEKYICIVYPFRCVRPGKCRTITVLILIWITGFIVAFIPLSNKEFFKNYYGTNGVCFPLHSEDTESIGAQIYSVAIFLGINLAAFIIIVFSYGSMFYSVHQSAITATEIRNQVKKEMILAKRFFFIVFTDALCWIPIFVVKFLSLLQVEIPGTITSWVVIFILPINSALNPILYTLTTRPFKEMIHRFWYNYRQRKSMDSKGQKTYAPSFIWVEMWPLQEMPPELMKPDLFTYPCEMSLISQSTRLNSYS
Test: RXFP1 Hu cAMP (Test A)
Format: cell-based
Design: expressed in transfected cells; host or cells: Jump-In T-REx CHO-K1 cells (ThermoFisher), induced with 10 ng/ml doxycycline for 24 h
Settings: RXFP1 Hu cAMP; for pEC50: read-out: Test A EC50
Procedure, shortened: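 Competitive HTRF cAMP readout (2 h, room temperature) in CHO-K1 cells stably expressing human RXFP1, induced with 10 ng/ml doxycycline for 24 h; IBMX 0.5 mM final.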

Compound | Test A Sinf [%] | pEC50
COc1cc(F)c(-c2cnc([C@@H]3C[C@H]3C(=O)O)cn2)cc1C(=O)N[C@@H]1[C@H]2CC[C@H](C2)[C@@H]1C(=O)Nc1cccc(S(=O)(=O)C(F)(F)F)c1 (single isomer, unassigned) [Example 264, (1R*,2R*)-2-(5-(2-Fluoro-4-methoxy-5-(((1S,2R,3S,4R)-3-((3-((trifluoromethyl)sulfonyl)phenyl)carbamoyl)bicyclo[2.2.1]heptan-2-yl)carbamoyl)phenyl)pyrazin-2-yl)cyclopropane-1-carboxylic acid] | 101 | 7.09
COc1cc(F)c(-c2ccc(C(=O)O)cc2)cc1C(=O)N[C@H]1[C@@H]2CC[C@@H](C2)[C@H]1C(=O)N[C@H]1CCCN(S(=O)(=O)C(F)(F)F)C1 (single isomer, unassigned) [Example 313, 2′-Fluoro-4′-methoxy-5′-(((1R*,2S*,3R*,4S*)-3-(((S)-1-((trifluoromethyl)sulfonyl)piperidin-3-yl)carbamoyl)bicyclo[2.2.1]heptan-2-yl)carbamoyl)-[1,1′-biphenyl]-4-carboxylic acid] |  | < 4.40
COc1cc(F)c(-c2ccc(C(=O)O)cc2)cc1C(=O)N[C@H]1[C@@H]2CC[C@@H](C2)[C@H]1C(=O)N[C@H]1CCCN(S(=O)(=O)C(F)(F)F)C1 (single isomer, unassigned) [Example 314, 2′-Fluoro-4′-methoxy-5′-(((1R*,2S*,3R*,4S*)-3-(((S)-1-((trifluoromethyl)sulfonyl)piperidin-3-yl)carbamoyl)bicyclo[2.2.1]heptan-2-yl)carbamoyl)-[1,1′-biphenyl]-4-carboxylic acid] | 74 | 5.11
COc1cc(F)c(-c2ccc(CCS(N)(=O)=O)cc2)cc1C(=O)N[C@H]1[C@H]2CC[C@H](C2)[C@H]1C(=O)Nc1cccc(S(=O)(=O)C(F)(F)F)c1 (single isomer, unassigned) [Example 327] |  | < 4.40
COc1cc(F)c(OC2CCCC(C(=O)O)C2)cc1C(=O)N[C@@H]1[C@H]2CC[C@H](C2)[C@@H]1C(=O)Nc1cccc(S(=O)(=O)C(F)(F)F)c1 (single isomer, unassigned) [Example 446] | 98 | 6.05
COc1cc(F)c(OC2CCCC(C(=O)O)C2)cc1C(=O)N[C@@H]1[C@H]2CC[C@H](C2)[C@@H]1C(=O)Nc1cccc(S(=O)(=O)C(F)(F)F)c1 (single isomer, unassigned) [Example 447] | 94 | 6.08
COc1cc(F)c(O[C@H]2CC[C@@](C)(C(=O)O)CC2)cc1C(=O)NC1CCN(C(C)=O)CC1C(=O)Nc1cccc(S(=O)(=O)C(F)(F)F)c1 (single isomer, unassigned) [Example 514, (1R,4s)-4-(5-(((3R*,4S*)-1-Acetyl-3-((3-((trifluoromethyl)sulfonyl)phenyl)carbamoyl)piperidin-4-yl)carbamoyl)-2-fluoro-4-methoxyphenoxy)-1-methylcyclohexane-1-carboxylic acid] | 107 | 4.82
COc1cc(F)c(O[C@H]2CC[C@@](C)(C(=O)O)CC2)cc1C(=O)NC1CCCCCC1C(=O)Nc1cccc(S(=O)(=O)C(F)(F)F)c1 (single isomer, unassigned) [Example 516, (1R,4s)-4-(2-Fluoro-4-methoxy-5-(((1S*,2R*)-2-((3-((trifluoromethyl)sulfonyl)phenyl)carbamoyl)cycloheptyl)carbamoyl)phenoxy)-1-methylcyclohexane-1-carboxylic acid] | 104 | 8.10
COc1cc(F)c(OC2CCC(C)(C(=O)O)CC2)cc1C(=O)NC1CC(OC)CC1C(=O)Nc1cccc(S(=O)(=O)C(F)(F)F)c1 (single isomer, unassigned) [Example 522, (1R,4s)-4-(2-Fluoro-4-methoxy-5-(((1S*,2R*,4S*)-4-methoxy-2-((3-((trifluoromethyl)sulfonyl)phenyl)carbamoyl)cyclopentyl)carbamoyl)phenoxy)-1-methylcyclohexane-1-carboxylic acid] |  | < 4.40
COc1cc(F)c(O[C@H]2CC[C@@](C)(C(=O)O)CC2)cc1C(=O)NC1C(OC)CCC1C(=O)Nc1cccc(S(=O)(=O)C(F)(F)F)c1 (single isomer, unassigned) [Example 526, (1R,4s)-4-(2-Fluoro-4-methoxy-5-(((1S*,2S*,5S*)-2-methoxy-5-((3-((trifluoromethyl)sulfonyl)phenyl)carbamoyl)cyclopentyl)carbamoyl)phenoxy)-1-methylcyclohexane-1-carboxylic acid] |  | < 4.40
COc1cc(F)c(O[C@H]2CC[C@@](C)(C(=O)O)CC2)cc1C(=O)NC1C(O)CCC1C(=O)Nc1cccc(S(=O)(=O)C(F)(F)F)c1 (single isomer, unassigned) [Example 528, (1R,4s)-4-(2-Fluoro-5-(((1S*,2S*,5S*)-2-hydroxy-5-((3-((trifluoromethyl)sulfonyl)phenyl)carbamoyl)cyclopentyl)carbamoyl)-4-methoxyphenoxy)-1-methylcyclohexane-1-carboxylic acid] |  | < 4.40
COc1cc(F)c(O[C@H]2CC[C@@](C)(C(=O)O)CC2)cc1C(=O)NC1C2CCC(O2)C1C(=O)NCC1(C)CCC1 (single isomer, unassigned) [Example 530, (1R,4s)-4-(2-Fluoro-4-methoxy-5-(((1S*,2S*,3R*,4R*)-3-(((1-methylcyclobutyl)methyl)carbamoyl)-7-oxabicyclo[2.2.1]heptan-2-yl)carbamoyl)phenoxy)-1-methylcyclohexane-1-carboxylic acid] | 96 | 6.77
COc1cc(F)c(O[C@H]2CC[C@@](CO)(C(=O)O)CC2)cc1C(=O)NC1C2CCC(O2)C1C(=O)NCC1(C)CCC1 (single isomer, unassigned) [Example 532, (1R,4s)-4-(2-Fluoro-4-methoxy-5-(((1S*,2S*,3R*,4R*)-3-(((1-methylcyclobutyl)methyl)carbamoyl)-7-oxabicyclo[2.2.1]heptan-2-yl)carbamoyl)phenoxy)-1-(hydroxymethyl)cyclohexane-1-carboxylic acid] | 104 | 6.85
COc1cc(C#N)c(OC2CCC(C)(C(=O)O)CC2)cc1C(=O)NC1C(C(=O)NCC2(C)CCC2)C2CCC1N2CCC(F)(F)F (single isomer, unassigned) [Example 537, (1R,4s)-4-(2-Cyano-4-methoxy-5-(((1S*,2S*,3R*,4R*)-3-(((1-methylcyclobutyl)methyl)carbamoyl)-7-(3,3,3-trifluoropropyl)-7-azabicyclo[2.2.1]heptan-2-yl)carbamoyl)phenoxy)-1-methylcyclohexane-1-carboxylic acid] | 77 | 5.22
COc1cc(C#N)c(O[C@H]2CC[C@@](C)(C(=O)O)CC2)cc1C(=O)NC1C2CCC(CC2)C1C(=O)NCC1(C)CCC1 (single isomer, unassigned) [Example 538, (1R,4s)-4-(2-Cyano-4-methoxy-5-(((2S*,3R*)-3-(((1-methylcyclobutyl)methyl)carbamoyl)bicyclo[2.2.2]octan-2-yl)carbamoyl)phenoxy)-1-methylcyclohexane-1-carboxylic acid] | 100 | 4.96
